# Experimental data taken from EP4722213A1, “NITROGEN-CONTAINING FUNCTIONAL GROUP-SUBSTITUTED PYRIDAZINOPYRIDONE DERIVATIVE AND USE THEREOF” (Sichuan Huiyu Pharmaceutical Co., Ltd., priority 2023, dated 2024).
# Where a name gives a salt, the structure may show the parent alone.
# Biological target: T1, SOS1 (Homo sapiens, UniProt Q07889)
# T1 sequence (Q07889 1-1333): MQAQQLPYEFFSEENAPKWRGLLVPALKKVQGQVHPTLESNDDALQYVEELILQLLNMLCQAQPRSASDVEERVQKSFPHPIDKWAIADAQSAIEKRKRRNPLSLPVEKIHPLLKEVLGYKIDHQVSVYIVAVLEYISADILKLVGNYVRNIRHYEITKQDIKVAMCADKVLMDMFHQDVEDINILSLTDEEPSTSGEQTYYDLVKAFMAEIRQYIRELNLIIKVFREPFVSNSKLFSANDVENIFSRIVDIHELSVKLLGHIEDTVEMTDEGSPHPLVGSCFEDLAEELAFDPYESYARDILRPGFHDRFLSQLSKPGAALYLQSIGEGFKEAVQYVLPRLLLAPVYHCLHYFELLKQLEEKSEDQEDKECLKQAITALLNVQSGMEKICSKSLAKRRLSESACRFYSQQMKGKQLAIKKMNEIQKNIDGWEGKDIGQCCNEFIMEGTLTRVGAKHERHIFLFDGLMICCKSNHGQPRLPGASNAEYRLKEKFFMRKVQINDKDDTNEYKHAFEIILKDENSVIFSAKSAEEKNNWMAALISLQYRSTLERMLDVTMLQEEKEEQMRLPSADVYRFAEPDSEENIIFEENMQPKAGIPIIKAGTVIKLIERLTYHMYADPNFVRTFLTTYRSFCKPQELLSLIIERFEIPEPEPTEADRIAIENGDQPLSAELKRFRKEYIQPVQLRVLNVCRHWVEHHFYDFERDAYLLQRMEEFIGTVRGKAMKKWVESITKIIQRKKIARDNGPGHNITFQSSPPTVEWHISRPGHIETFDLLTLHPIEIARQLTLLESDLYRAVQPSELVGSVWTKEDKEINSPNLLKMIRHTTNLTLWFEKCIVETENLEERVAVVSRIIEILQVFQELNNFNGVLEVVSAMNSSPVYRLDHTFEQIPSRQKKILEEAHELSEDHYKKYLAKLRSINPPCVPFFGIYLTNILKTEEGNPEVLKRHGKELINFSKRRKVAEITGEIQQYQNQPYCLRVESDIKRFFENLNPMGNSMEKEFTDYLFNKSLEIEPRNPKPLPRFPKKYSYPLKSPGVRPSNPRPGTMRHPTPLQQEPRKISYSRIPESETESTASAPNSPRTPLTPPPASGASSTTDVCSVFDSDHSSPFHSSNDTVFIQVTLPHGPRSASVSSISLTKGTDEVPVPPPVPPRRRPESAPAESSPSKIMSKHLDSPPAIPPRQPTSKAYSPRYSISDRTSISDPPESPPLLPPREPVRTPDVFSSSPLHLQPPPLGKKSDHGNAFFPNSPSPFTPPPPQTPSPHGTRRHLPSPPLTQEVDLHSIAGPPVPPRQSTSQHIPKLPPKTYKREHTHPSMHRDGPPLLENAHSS
# Assay: biochemical
row,Structure (SMILES),IC50 [nM]
1,"C[C@@H](Nc1nnc(NN2CCOCC2)c2cc(=O)n(C3(C)CC3)cc12)c1cccc(C(F)(F)F)c1 [Example 158, (R)-6-(1-methylcyclopropyl)-1-(morpholinoamino)-4-((1-(3-(trifluoromethyl)phenyl)ethyl)amino)pyr ido[3,4-d]pyridazin-7(6H)-one formate]",6.9
2,"C[C@@H](Nc1nnc(N2CCS(=O)(=O)CC2)c2cc(=O)n(C3(C)CC3)cc12)c1cccc(C(F)F)c1F [Example 27, (R)-4-((1-(3-(difluoromethyl)-2-fluorophenyl)ethyl)amino)-1-(1,1-dioxidothiomorpholino)-6-(1-methylcyclopropyl) pyrido[3,4-d]pyridazin-7(6H)-one]",16.5
3,"C[C@@H](Nc1nnc(-n2ccnc2)c2cc(=O)n(C3CC3)cc12)c1cccc(C(F)F)c1F [Example 31, (R)-6-cyclopropyl-4-((1-(3-(difluoromethyl)-2-fluorophenyl)ethyl)amino)-1-(1H-imidazol-1-yl)pyrido[3,4-d]pyridazin-7(6H)-one]",19.5
4,"CCN1CCN(c2nnc(N[C@H](C)c3cccc(C#N)c3C)c3cn(C4CC4)c(=O)cc23)CC1 [Example 224, (R)-3-(1-((6-cyclopropyl-1-(4-ethylpiperazin-1-yl)-7-oxo-6,7-dihydropyrido[3,4-d]pyridazin-4-yl)amino)ethyl)-2-methylbenzonitrile]",8.4
5,"CCN(C)c1nnc(N[C@H](C)c2cccc(C(F)F)c2F)c2cn(C3(C)CC3)c(=O)cc12 [Example 122, (R)-4-((1-(3-(difluoromethyl)-2-fluorophenyl)ethyl)amino)-1-(ethyl(methyl)amino)-6-(1-methylcyclopropyl) pyrido[3,4-d]pyridazin-7(6H)-one]",10.6
6,"C[C@@H](Nc1nnc(N2CCN(C)CC2)c2cc(=O)n(C)cc12)c1cccc(C(F)F)c1F [Example 138, (R)-4-((1-(3-(difluoromethyl)-2-fluorophenyl)ethyl)amino)-6-methyl-1-(4-methylpiperazin-1-yl)pyrido[3,4-d]pyridazin-7(6H)-one formate]",10.7
7,"Cc1c([C@@H](C)Nc2nnc(N3CCN(C)CC3)c3cc(=O)n(C4CC4)cc23)cccc1C(F)(F)F [Example 86, (R)-6-cyclopropyl-4-((1-(2-methyl-3-(trifluoromethyl)phenyl)ethyl)amino)-1-(4-methylpiperazin-1-yl)pyrido[3,4-d]pyridazin-7(6H)-one]",3.6
8,"C[C@@H](Nc1nnc(N2CC[C@@H](CO)C2)c2cc(=O)n(C3(C)CC3)cc12)c1cccc(C(F)(F)F)c1 [Example 178, 1-((R)-3-(hydroxymethyl)pyrrolidin-1-yl)-6-(1-methylcyclopropyl)-4-(((R)-1-(3-(trifluoromethyl)phenyl)ethyl)amino)pyr ido[3,4-d]pyridazin-7(6H)-one formate]",6.3
9,"Cc1c(C#N)cccc1[C@@H](C)Nc1nnc(N2CCC2)c2cc(=O)n(C3CC3)cc12 [Example 36, (R)-3-(1-((1-(azetidin-1-yl)-6-cyclopropyl-7-oxo-6,7-dihydropyrido[3,4-d]pyridazin-4-yl)amino)ethyl)-2-methylbenzonitrile]",10.7
10,"C[C@@H](Nc1nnc(N2CCN(C3CCCC3)CC2)c2cc(=O)n(C)cc12)c1cccc(C(F)F)c1F [Example 146, (R)-1-(4-cyclopentylpiperazin-1-yl)-4-((1-(3-(difluoromethyl)-2-fluorophenyl)ethyl)amino)-6-methylpyrido[3,4-d]pyridazin-7(6H)-one]",12.5
11,"C[C@@H](Nc1nnc(N2CC3COCC3C2)c2cc(=O)n(C3(C)CC3)cc12)c1cccc(C(F)F)c1F (stereo partly drawn) [Example 205, 4-(((R)-1-(3-(difluoromethyl)-2-fluorophenyl)ethyl)amino)-6-(1-methylcyclopropyl)-1-(tetrahydro-1H-furo[3,4-c]pyrrol-5(3H)-yl)pyrido[3,4-d]pyridazin-7(6H)-one]",4.1
12,"Cc1c([C@@H](C)Nc2nnc(N3CCC(F)(F)C3)c3cc(=O)n(C4(C)CC4)cc23)cccc1C(F)(F)F [Example 67, (R)-1-(3,3-difluoropyrrolidin-1-yl)-4-((1-(2-methyl-3-(trifluoromethyl)phenyl)ethyl)amino)-6-(1-methylcyclopropyl) pyrido[3,4-d]pyridazin-7(6H)-one]",29
13,"C[C@@H](Nc1nnc(N2CCN(C3CCCC3)CC2)c2cc(=O)n(C3CC(F)(F)C3)cc12)c1cccc(C(F)F)c1F [Example 106, (R)-6-(3,3-difluorocyclobutyl)-4-((1-(3-(difluoromethyl)-2-fluorophenyl)ethyl)amino)-1-(4-cyclopentylpiperazin-1-yl)pyrido[3,4-d]pyridazin-7(6H)-one]",5.2
14,"C[C@@H](Nc1nnc(N2CCN(C)[C@@H](C)C2)c2cc(=O)n(C3(C)CC3)cc12)c1cccc(C(F)(F)F)c1 [Example 180, 1-((S)-3,4-dimethylpiperazin-1-yl)-6-(1-methylcyclopropyl)-4-(((R)-1-(3-(trifluoromethyl)phenyl)ethyl)amino)pyr ido[3,4-d]pyridazin-7(6H)-one formate]",7.2
15,"CNc1nnc(N[C@H](C)c2cccc(C#N)c2C)c2cn(C3(C)CC3)c(=O)cc12 [Example 83, (R)-2-methyl-3-(1-((1-(methylamino)-6-(1-methylcyclopropyl)-7-oxo-6,7-dihydropyrido[3,4-d]pyridazin-4-yl)amino)ethyl)benzonitrile]",5.6
16,"C[C@@H](Nc1nnc(N2CCC(F)(F)CC2)c2cc(=O)n(C3CC3)cc12)c1cccc(C(F)F)c1F [Example 19, (R)-6-cyclopropyl-4-((1-(3-(difluoromethyl)-2-fluorophenyl)ethyl)amino)-1-(4,4-difluoropiperidin-1-yl)pyrido[3,4-d]pyridazin-7(6H)-one]",27.2
17,"C[C@@H]1CCCN1c1nnc(N[C@H](C)c2cccc(C(F)F)c2F)c2cn(C3CC3)c(=O)cc12 [Example 25, 6-cyclopropyl-4-(((R)-1-(3-(difluoromethyl)-2-fluorophenyl)ethyl)amino)-1-((R)-2-methylpyrrolidin-1-yl)pyrido[3,4-d]pyridazin-7(6H)-one]",12
18,"Cc1c(C#N)cccc1[C@@H](C)Nc1nnc(N2CCCC2)c2cc(=O)n(C3CC3)cc12 [Example 37, (R)-3-(1-((6-cyclopropyl-7-oxo-1-(pyrrolidin-1-yl)-6,7-dihydropyrido[3,4-d]pyridazin-4-yl)amino)ethyl)-2-methylbenzonitrile]",9.2
19,"Cc1c([C@@H](C)Nc2nnc(N3CCN(C)CC3)c3cc(=O)n(C4(C)CC4)cc23)cccc1S(=O)(=O)C(F)F [Example 209, (R)-4-((1-(3-((difluoromethyl)sulfonyl)-2-methylphenyl)ethyl)amino)-6-(1-methylcyclopropyl)-1-(4-methylpiperazin-1-yl)pyrido[3,4-d]pyridazin-7(6H)-one]",4.4
20,"CCN(CC)c1nnc(N[C@H](C)c2cccc(C(F)(F)F)c2C)c2cn(C3CC3)c(=O)cc12 [Example 53, (R)-6-cyclopropyl-1-(diethylamino)-4-((1-(2-methyl-3-(trifluoromethyl)phenyl)ethyl)amino)pyr ido[3,4-d]pyridazin-7(6H)-one]",24.7
21,"Cc1c(C#N)cccc1[C@@H](C)Nc1nnc(N2CCN(CC3CC3)CC2)c2cc(=O)n(C3CC3)cc12 [Example 102, (R)-3-(1-((6-cyclopropyl-1-(4-(cyclopropylmethyl)piperazin-1-yl)-7-oxo-6,7-dihydropyrido[3,4-d]pyridazin-4-yl)amino)ethyl)-2-methylbenzonitrile]",12.5
